Measured values reported in US20110015162A1, “15,16-Methylene-17-hydroxy-19-nor-21-carboxylic acid-steroid Y-lactone derivative, use thereof and medicinal products containing the derivative” (Bayer Schering Pharma Aktiengesellschaft, priority 2007, published 2011).
Read-outs that look alike come from different tables or passages of the source.

Legend:
[1] = biological target: T1, androgen receptor (Homo sapiens, UniProt P10275); experiment: Androgen receptor binding test; design: expressed in transfected cells
T1 sequence (P10275 1-920): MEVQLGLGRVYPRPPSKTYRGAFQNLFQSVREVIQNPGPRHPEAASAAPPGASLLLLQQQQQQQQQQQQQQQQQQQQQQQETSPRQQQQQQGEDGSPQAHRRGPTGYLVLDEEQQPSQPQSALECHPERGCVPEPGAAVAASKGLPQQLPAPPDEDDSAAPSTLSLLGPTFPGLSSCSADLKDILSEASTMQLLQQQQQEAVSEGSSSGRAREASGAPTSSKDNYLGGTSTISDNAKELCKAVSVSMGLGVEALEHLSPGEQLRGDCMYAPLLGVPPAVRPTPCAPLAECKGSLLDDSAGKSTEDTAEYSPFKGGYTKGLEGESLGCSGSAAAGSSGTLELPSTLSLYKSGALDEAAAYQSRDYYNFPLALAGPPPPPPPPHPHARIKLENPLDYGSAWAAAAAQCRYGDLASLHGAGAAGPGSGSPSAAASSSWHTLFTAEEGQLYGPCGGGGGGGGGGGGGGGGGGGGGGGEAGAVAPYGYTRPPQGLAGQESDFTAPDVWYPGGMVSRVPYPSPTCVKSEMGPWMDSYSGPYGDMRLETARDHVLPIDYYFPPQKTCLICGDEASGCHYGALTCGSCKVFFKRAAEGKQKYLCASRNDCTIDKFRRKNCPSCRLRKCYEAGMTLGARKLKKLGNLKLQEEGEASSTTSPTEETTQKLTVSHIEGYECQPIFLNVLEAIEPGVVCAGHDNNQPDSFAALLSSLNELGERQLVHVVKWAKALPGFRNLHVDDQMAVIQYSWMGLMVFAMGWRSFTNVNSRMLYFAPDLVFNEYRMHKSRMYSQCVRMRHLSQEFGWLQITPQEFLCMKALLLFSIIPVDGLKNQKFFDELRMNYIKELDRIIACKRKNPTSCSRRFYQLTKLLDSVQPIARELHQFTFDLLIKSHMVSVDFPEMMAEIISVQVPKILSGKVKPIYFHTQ
Protocol: Using cytosol from progesterone receptor-expressing insect cells (Hi5), competitive binding to the progesterone receptor was determined from the ability to displace ^3H-progesterone as reference substance from the receptor.
3. Androgen Receptor Binding Test: […]

[2] = biological target: T2, fusion protein from the PR-ligand-binding domain and a Gal4-transactivation domain (Homo sapiens, UniProt P06401); experiment: Progestational action by transactivation test (CHO K1 reporter cells); format: cell-based; conditions: for Emax: read-out: Progesterone receptor Agonism efficacy
T2 construct: expressed in transfected cells; host or cells: CHO K1 cells, stably transfected
Protocol: 4. Determination of Progestational Action by Means of Transactivation Tests:
The culture medium used for culture of the cells used for the assay was DMEM (Dulbecco's Modified Eagle Medium: […] glucose; PAA, #E15-009) with 10% FCS (Biochrom, S0115, batch #615B), 4 mM L-glutamine, 1% penicillin/streptomycin, 1 mg/ml G418 and 0.5 μg/ml puromycin.
Reporter cell lines (CHO K1 cells stably transfected with a fusion protein from the PR-ligand-binding domain and a Gal4-transactivation domain and a reporter construct, which contained luciferase under the control of a Gal4-responsive promoter) were seeded at a density of 4×10^4 cells per well in white, opaque tissue culture plates each with 96 wells (PerkinElmer, #P12-106-017) and kept in culture medium with 3% DCC-FCS (serum treated with activated charcoal to remove interfering components contained in the serum). The test compounds were added eight hours later, and the cells were incubated with the compounds for 16 hours. The tests were carried out in triplicate. At the end of incubation the medium containing the effector was removed and replaced with lysis buffer. After luciferase assay substrate (Promega, #E1501) had been added, the 96-well plates were then put in a microplate luminometer (Pherastar, BMG Labtech), and the luminescence was measured. The IC50 values were evaluated using software for calculating dose-effect relations.

T2 sequence (P06401 679-913 limits assumed): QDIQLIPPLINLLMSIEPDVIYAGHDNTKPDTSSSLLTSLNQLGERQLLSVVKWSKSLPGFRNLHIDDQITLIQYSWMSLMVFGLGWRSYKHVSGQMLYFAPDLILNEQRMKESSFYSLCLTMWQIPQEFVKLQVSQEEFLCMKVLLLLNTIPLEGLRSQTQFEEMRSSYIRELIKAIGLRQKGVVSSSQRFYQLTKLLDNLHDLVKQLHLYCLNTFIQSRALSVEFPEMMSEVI
T2 sequence (P04386 1-147 partner limits assumed): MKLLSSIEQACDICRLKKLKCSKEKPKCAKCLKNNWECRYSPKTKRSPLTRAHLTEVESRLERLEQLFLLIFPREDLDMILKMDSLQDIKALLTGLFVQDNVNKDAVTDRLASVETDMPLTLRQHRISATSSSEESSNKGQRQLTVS

C[C@]12CC[C@H]3[C@H]([C@@H]1[C@H]1C[C@H]1[C@@]21C=CC(=O)O1)[C@H](C1CC1)CC1=CC(=O)CC[C@@H]13 [Example 17A, 17β-Hydroxy-7α-cyclopropyl-15α,16α-methylene-19-nor-17α-pregna-4,20(Z)-dien-3-one-21-carboxylic acid γ-lactone]
IC50 [1]: 77 nM
EC50 [2]: 970 nM
Emax ([2]; CHO-K1, 16 h): 71.8%

C[C@]12CC[C@H]3[C@@H](CCC4=C(Cl)C(=O)CC[C@@H]43)[C@@H]1[C@H]1C[C@H]1[C@@]21C=CC(=O)O1 [Example 18, 4-Chloro-17β-hydroxy-15α,16α-methylene-19-nor-17α-pregna-4,20(Z)-dien-3-one-21-carboxylic acid γ-lactone]
IC50 [1]: 140 nM
EC50 [2]: 810 nM
Emax ([2]; CHO-K1, 16 h): 25.7%

C[C@]12CC[C@H]3[C@@H](C[C@@H](CO)C4=CC(=O)CC[C@@H]43)[C@@H]1[C@@H]1C[C@@H]1[C@@]21C=CC(=O)O1 [Example 21, 17β-Hydroxy-6β-hydroxymethylene-15β,16β-methylene-19-nor-17α-pregna-4,20(Z)-dien-3-one-21-carboxylic acid γ-lactone]
IC50 ([1]; reference substance 3H-testosterone, cytosol from AR-expressing insect cells (Hi5), read-out: Androgen receptor IC50): 1000 nM
EC50 ([2]; CHO K1 reporter cells, 16 hours incubation, read-out: Progesterone receptor Agonism EC50): 780 nM
Emax ([2]; CHO K1 reporter cells, 16 hours incubation): 21%

C[C@@H]1CC2=CC(=O)CC[C@@H]2[C@H]2CC[C@@]3(C)[C@@H]([C@@H]4C[C@@H]4[C@@]34C=CC(=O)O4)[C@@H]21 [Example 23A, 17β-Hydroxy-7α-methyl-15β,16β-methylene-19-nor-17α-pregna-4,20(2)-dien-3-one-21-carboxylic acid γ-lactone]
IC50 [1]: 81 nM
EC50 [2]: 21 nM
Emax ([2]; CHO-K1, 16 h): 140%

CC[C@@H]1CC2=CC(=O)CC[C@@H]2[C@H]2CC[C@@]3(C)[C@@H]([C@@H]4C[C@@H]4[C@@]34C=CC(=O)O4)[C@H]12 [Example 24A, 7α-Ethyl-17β-hydroxy-15β,16β-methylene-19-nor-17α-pregna-4,20(Z)-dien-3-one-21-carboxylic acid γ-lactone]
IC50 [1]: 160 nM
EC50 [2]: 140 nM
Emax ([2]; CHO-K1, 16 h): 42.7%

C=C[C@@H]1CC2=CC(=O)CC[C@@H]2[C@H]2CC[C@@]3(C)[C@@H]([C@@H]4C[C@@H]4[C@@]34C=CC(=O)O4)[C@@H]21 [Example 25A, 17β-Hydroxy-15β,16β-methylene-7α-vinyl-19-nor-17α-pregna-4,20(Z)-dien-3-one-21-carboxylic acid γ-lactone]
IC50 [1]: 37 nM
EC50 [2]: 560 nM
Emax ([2]; CHO-K1, 16 h): 46.5%

C[C@]12CC[C@H]3[C@@H](CCC4=C(Cl)C(=O)CC[C@@H]43)[C@@H]1[C@@H]1C[C@@H]1[C@@]21C=CC(=O)O1 [Example 27, 4-Chloro-17β-hydroxy-15β,16β-methylene-19-nor-17α-pregna-4,20(Z)-dien-3-one-21-carboxylic acid γ-lactone]
IC50 [1]: 810 nM
EC50 [2]: 330 nM
Emax ([2]; CHO-K1, 16 h): 49.6%
